Where two headings read alike, the source gives them in different places.
Tests used:
[1] = target: T1, recombinant Myceliophthora thermophila laccase (r-MtL) (Thermothelomyces thermophilus, UniProt G2QG31); assay: r-MtL-catalyzed ABTS oxidation; assay type: biochemical
T1 sequence (G2QG31 48-602): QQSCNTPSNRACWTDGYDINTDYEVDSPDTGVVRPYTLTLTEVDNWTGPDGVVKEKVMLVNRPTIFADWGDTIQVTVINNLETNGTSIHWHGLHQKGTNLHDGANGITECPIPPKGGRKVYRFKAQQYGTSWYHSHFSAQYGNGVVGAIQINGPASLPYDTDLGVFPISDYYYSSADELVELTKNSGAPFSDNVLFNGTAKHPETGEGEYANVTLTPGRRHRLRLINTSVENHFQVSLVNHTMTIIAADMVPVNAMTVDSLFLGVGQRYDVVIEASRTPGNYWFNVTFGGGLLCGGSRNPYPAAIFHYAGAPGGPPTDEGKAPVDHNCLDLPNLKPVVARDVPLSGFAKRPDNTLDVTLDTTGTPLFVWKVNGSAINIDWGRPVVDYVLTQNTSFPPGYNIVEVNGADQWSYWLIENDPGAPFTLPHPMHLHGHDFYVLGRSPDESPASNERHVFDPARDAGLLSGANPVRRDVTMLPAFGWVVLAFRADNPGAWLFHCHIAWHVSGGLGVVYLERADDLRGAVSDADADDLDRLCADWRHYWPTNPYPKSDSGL
Description: (§1) Enzymatic assays for determining oxidation of I^- are conducted in B & R buffer containing from 1-20 nM MtL (subunit concentration) and 10 to 200 mM Nal at 20° C. for 5-10 minutes. The extinction coefficient of 26 mM^-1 cm^-1 is used to calculate rate. Oxidation of I^- is spectrally monitored at 340 or 353 nm and the spectrum of the oxidation product is found identical to that of I3 -(Hosoya, Biochem. (Tokyo) 53: 381, 1963). Kinetic parameters are extracted by a non-linear regression fitting (Prism, GraphPad) of rate and concentration data to the equation of rate=Vmax *[substrate]/Km +[substrate].

[2] = test system: tyrosinase (mushroom); conditions: pH 2.7
Source text: Chemicals used as buffers and substrates are commercial products of at least reagent grade. Ascorbate oxidase (Cucurbita species), ceruloplasmin (porcine plasma), bilirubin oxidase (Myrothecium verrucaria) and tyrosinase (mushroom) are purchased from Sigma and used as received. The contents of the enzymes in lyophilized powder or solution are confirmed by uv-visible absorption and published extinction coefficients. The stated activity of ascorbate oxidase is confirmed with ascorbic acid.
The extinction coefficient of 36 mM^-1 cm^-1 is used to calculate the rate. Spectroscopic assays are conducted on either a spectrophotometer (Shimadzu UV160) or a microplate reader (Molecular Devices). Britton & Robinson (B & R) buffers are prepared according to a standard protocol (Quelle, Biochemisches Taschenbuch, H. M. Raven, II. Teil, S.93 u. 102, 1964).

[3] = target: T2, bilirubin oxidase (Myrothecium verrucaria) (Albifimbria verrucaria, UniProt Q12737); assay: bilirubin oxidase-catalyzed I^- oxidation; assay type: biochemical; conditions: optimal pH of 4.1
T2 construct: purchased Sigma
T2 sequence (Q12737 39-572): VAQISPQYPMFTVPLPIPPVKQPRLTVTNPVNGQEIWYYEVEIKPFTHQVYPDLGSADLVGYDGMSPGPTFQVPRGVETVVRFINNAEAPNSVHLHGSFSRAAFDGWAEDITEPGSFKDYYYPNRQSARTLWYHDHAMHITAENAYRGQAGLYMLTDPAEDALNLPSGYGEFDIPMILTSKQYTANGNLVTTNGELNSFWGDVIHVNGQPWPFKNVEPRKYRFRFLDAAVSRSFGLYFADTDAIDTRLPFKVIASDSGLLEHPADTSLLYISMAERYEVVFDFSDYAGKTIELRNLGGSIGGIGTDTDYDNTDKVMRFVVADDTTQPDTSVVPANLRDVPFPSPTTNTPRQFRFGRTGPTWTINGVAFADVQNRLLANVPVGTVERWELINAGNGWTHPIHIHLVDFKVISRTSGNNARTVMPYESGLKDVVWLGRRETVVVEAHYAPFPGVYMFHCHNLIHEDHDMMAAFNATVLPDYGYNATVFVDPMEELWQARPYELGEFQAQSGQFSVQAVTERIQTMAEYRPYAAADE
Description: as §1
(§2) Ascorbate oxidase, ceruloplasmin, bilirubin oxidase, and tyrosinase at concentrations up to μM level are also tested under similar conditions for I^- oxidation catalysis.

[4] = test system: tyrosinase (mushroom); assay: tyrosinase-catalyzed I^- oxidation; assay type: biochemical; conditions: optimal pH of 2.7
Description: as §1, §2

[5] = target: T1, recombinant Myceliophthora thermophila laccase (r-MtL); assay: r-MtL-catalyzed I^- oxidation; assay type: biochemical; conditions: pH 3.4
Description: as §1

[6] = target: Myceliophthora laccase (Thermothelomyces thermophilus, UniProt G2QG31); assay: chloride inhibition of Myceliophthora laccase; assay type: biochemical; conditions: read-out: inhibition constant (chloride)

CCn1c(=NN=c2sc3cc(S(=O)(=O)O)ccc3n2CC)sc2cc(S(=O)(=O)O)ccc21 [ABTS, 2,2'-azinobis-(3-ethylbenzthiazoline-6-sulfonic acid)]
Km of ABTS, fold smaller in comparison with I^- [1]: ~ 10^3 fold
Vmax of ABTS, fold larger in comparison with I^- [1]: ~ 10^3 fold
Vmax (ABTS oxidation) [2]: 3.1±0.1 turnover per minute
Km ([2]; read-out: Km (ABTS)): 0.18 ± 0.01 mM

I [I^-, iodide]
Vmax (I^- oxidation) [3]: 1.7±0.1 turnover per minute
Km [4]: ~100 mM
Vmax (I^- oxidation) [4]: ca. 0.1 turnover per minute
Vmax (I^- oxidation) [5]: 2.7±0.2 turnover per minute

Cl [chloride]
Ki [6]: ~70 mM

From patent US5766896A, “Method of producing iodine by use of a copper containing oxidase enzyme” (Novo Nordisk Biotech Inc., priority 1994, dated 1998)
